Assay: Equilibrium binding study in a two-compartment dialysis cell, HPLC
Conditions: sodium alginate 0.877 g/L, 25°C
[1] = total drug concentration 4.97 M x 10^4
[2] = total drug concentration 5.47 M x 10^4
[3] = total drug concentration 5.96 M x 10^4
[4] = total drug concentration 6.96 M x 10^4
[5] = total drug concentration 7.95 M x 10^4
[6] = total drug concentration 8.95 M x 10^4
[7] = total drug concentration 9.94 M x 10^4
[8] = total drug concentration 14.91 M x 10^4
[9] = total drug concentration 19.88 M x 10^4
[10] = total drug concentration 24.86 M x 10^4
[11] = total drug concentration 30.40 M x 10^4
[12] = total drug concentration 41.20 M x 10^4
[13] = total drug concentration 50.70 M x 10^4

Protocol: The studies were performed with a two compartment plexiglass dialysis cell (Hollenbeck laboratory) and having a cellulose membrane (molecular weight cutoff of 6000 Daltons) Bel-Art Products (Pequannock, NJ) placed between the two cell compartments. […] The dialysis cell was shaken at 80 RPM in a thermostatic water bath at 25°C until equilibrium was reached (30 h). The solution was removed from the drug compartment and the concentrations of free drug and polymer-bound drug measured by high performance liquid chromatography ("HPLC").

What does the source list for `CC(C)NCC(O)COc1cccc2ccccc12` (stereo not drawn) [propranolol]?
Amount bound per gram of polymer [1]: 4.59 M x 10^4; Bound drug concentration [1]: 4.03 M x 10^4; Free drug concentration [1]: 0.94 M x 10^4; r/(Df) [1]: 4.88 L/g; Amount bound per gram of polymer [2]: 4.84 M x 10^4; Bound drug concentration [2]: 4.25 M x 10^4; Free drug concentration [2]: 1.22 M x 10^4; r/(Df) [2]: 3.97 L/g; Amount bound per gram of polymer [3]: 5.16 M x 10^4; Bound drug concentration [3]: 4.53 M x 10^4; Free drug concentration [3]: 1.43 M x 10^4; r/(Df) [3]: 3.60 L/g; Amount bound per gram of polymer [4]: 5.86 M x 10^4; Bound drug concentration [4]: 5.14 M x 10^4; Free drug concentration [4]: 1.82 M x 10^4; r/(Df) [4]: 3.21 L/g; Amount bound per gram of polymer [5]: 6.23 M x 10^4; Bound drug concentration [5]: 5.46 M x 10^4; Free drug concentration [5]: 2.49 M x 10^4; r/(Df) [5]: 2.49 L/g; Amount bound per gram of polymer [6]: 6.12 M x 10^4; Bound drug concentration [6]: 5.37 M x 10^4; Free drug concentration [6]: 3.57 M x 10^4; r/(Df) [6]: 1.71 L/g; Amount bound per gram of polymer [7]: 6.66 M x 10^4; Bound drug concentration [7]: 5.83 M x 10^4; Free drug concentration [7]: 4.10 M x 10^4; r/(Df) [7]: 1.62 L/g; Amount bound per gram of polymer [8]: 8.61 M x 10^4; Free drug concentration [8]: 7.36 M x 10^4; r/(Df) [8]: 1.17 L/g; Amount bound per gram of polymer [9]: 9.81 M x 10^4; Bound drug concentration [9]: 8.60 M x 10^4; Free drug concentration [9]: 11.28 M x 10^4; r/(Df) [9]: 0.87 L/g; Amount bound per gram of polymer [10]: 10.73 M x 10^4; Bound drug concentration [10]: 9.41 M x 10^4; Free drug concentration [10]: 15.45 M x 10^4; r/(Df) [10]: 0.60 L/g; Amount bound per gram of polymer [11]: 11.49 M x 10^4; Bound drug concentration [11]: 10.08 M x 10^4; Free drug concentration [11]: 20.32 M x 10^4; r/(Df) [11]: 0.57 L/g; Amount bound per gram of polymer [12]: 12.37 M x 10^4; Bound drug concentration [12]: 10.84 M x 10^4; Free drug concentration [12]: 30.35 M x 10^4; r/(Df) [12]: 0.41 L/g; Amount bound per gram of polymer [13]: 12.93 M x 10^4; Bound drug concentration [13]: 11.34 M x 10^4; Free drug concentration [13]: 39.36 M x 10^4; r/(Df) [13]: 0.33 L/g

From patent publication EP2361611A2, “Aqueous sustained-release drug delivery system for highly water-soluble electrolytic drugs” (Upm Pharmaceuticals, Inc., priority 2005, dated 2006)
